System: 388556-164-R-J1-PDC complex spheroid viability
Experiment: Anticancer human tumor 388556-164-R-J1-PDC patient-derived colon adenocarcinoma cell line growth inhibition [RAS]
Conditions: for IC50: curve of first compound; for viability, T/C: stronger effect = lower value
In short: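 Agents were tested in combination matrices in half-log decrements from a top concentration at or near clinical Cmax (10 microM if undetermined). Targets were multi-cell spheroids of tumour lines plus HUVEC and MSC stromal cells.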
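Further: spheroids exposed to compound for 7 days before readout.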
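Wherever viability, T/C is given: 100% = DMSO vehicle control luminescence.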

SMILES: CC(Nc1ccc2c(c1)OCCn1cc(N3C(=O)OCC3C(F)F)nc1-2)C(N)=O (centres undefined) + CCn1c(-c2cc(N3CCN(C)CC3)cnc2C(C)OC)c2c3cc(ccc31)-c1csc(n1)CC(NC(=O)C1CC1C)C(=O)N1CCCC(N1)C(=O)OCC(C)(C)C2
- IC50 (second compound 0.000949 µM): > 10 µM
- IC50 (second compound 0.003 µM): 3.45 µM
- IC50 (second compound 0.00949 µM): 0.854 µM
- IC50 (second compound 0.03 µM): 0.0985 µM
- IC50 (second compound 0.0949 µM): < 0.0316 µM
- IC50 (second compound 0.3 µM): < 0.0316 µM
- viability, T/C (second compound 0.000949 µM, first compound 0.0316 µM): 89.5%
- viability, T/C (second compound 0.000949 µM, first compound 0.1 µM): 82.3%
- viability, T/C (second compound 0.000949 µM, first compound 0.316 µM): 71.9%
- viability, T/C (second compound 0.000949 µM, first compound 1 µM): 66.6%
- viability, T/C (second compound 0.000949 µM, first compound 3.16 µM): 59.6%
- viability, T/C (second compound 0.000949 µM, first compound 10 µM): 49.6%
- viability, T/C (second compound 0.003 µM, first compound 0.0316 µM): 82.4%
- viability, T/C (second compound 0.003 µM, first compound 0.1 µM): 79.2%
- viability, T/C (second compound 0.003 µM, first compound 0.316 µM): 63.4%
- viability, T/C (second compound 0.003 µM, first compound 1 µM): 62.6%
- viability, T/C (second compound 0.003 µM, first compound 3.16 µM): 51.6%
- viability, T/C (second compound 0.003 µM, first compound 10 µM): 40.2%
- viability, T/C (second compound 0.00949 µM, first compound 0.0316 µM): 79.3%
- viability, T/C (second compound 0.00949 µM, first compound 0.1 µM): 75%
- viability, T/C (second compound 0.00949 µM, first compound 0.316 µM): 48.5%
- viability, T/C (second compound 0.00949 µM, first compound 1 µM): 52.4%
- viability, T/C (second compound 0.00949 µM, first compound 3.16 µM): 43.8%
- viability, T/C (second compound 0.00949 µM, first compound 10 µM): 31.9%
- viability, T/C (second compound 0.03 µM, first compound 0.0316 µM): 55.8%
- viability, T/C (second compound 0.03 µM, first compound 0.1 µM): 48.4%
- viability, T/C (second compound 0.03 µM, first compound 0.316 µM): 42%
- viability, T/C (second compound 0.03 µM, first compound 1 µM): 42.7%
- viability, T/C (second compound 0.03 µM, first compound 3.16 µM): 34.7%
- viability, T/C (second compound 0.03 µM, first compound 10 µM): 25.7%
- viability, T/C (second compound 0.0949 µM, first compound 0.0316 µM): 42.3%
- viability, T/C (second compound 0.0949 µM, first compound 0.1 µM): 38%
- viability, T/C (second compound 0.0949 µM, first compound 0.316 µM): 31.6%
- viability, T/C (second compound 0.0949 µM, first compound 1 µM): 27.9%
- viability, T/C (second compound 0.0949 µM, first compound 3.16 µM): 22.7%
- viability, T/C (second compound 0.0949 µM, first compound 10 µM): 16.3%
- viability, T/C (second compound 0.3 µM, first compound 0.0316 µM): 28.2%
- viability, T/C (second compound 0.3 µM, first compound 0.1 µM): 26.2%
- viability, T/C (second compound 0.3 µM, first compound 0.316 µM): 22.9%
- viability, T/C (second compound 0.3 µM, first compound 1 µM): 21%
- viability, T/C (second compound 0.3 µM, first compound 3.16 µM): 18.6%
- viability, T/C (second compound 0.3 µM, first compound 10 µM): 14.2%

SMILES: C[C@@H](NC(=O)c1ncnc(N)c1Cl)c1ncc(C(=O)Nc2cc(C(F)(F)F)c(Cl)cn2)s1 + C#Cc1c(F)ccc2cc(O)cc(-c3ncc4c(N5CC6CCC(C5)N6)nc(OCC56CCCN5CC(F)C6)nc4c3F)c12
- IC50 (second compound 0.0316 µM): > 10 µM
- IC50 (second compound 0.1 µM): > 10 µM
- IC50 (second compound 0.316 µM): > 10 µM
- IC50 (second compound 1 µM): > 10 µM
- IC50 (second compound 3.16 µM): > 10 µM
- IC50 (second compound 10 µM): > 10 µM
- viability, T/C (second compound 0.0316 µM, first compound 0.0316 µM): 112%
- viability, T/C (second compound 0.0316 µM, first compound 0.1 µM): 124%
- viability, T/C (second compound 0.0316 µM, first compound 0.316 µM): 117%
- viability, T/C (second compound 0.0316 µM, first compound 1 µM): 116%
- viability, T/C (second compound 0.0316 µM, first compound 3.16 µM): 116%
- viability, T/C (second compound 0.0316 µM, first compound 10 µM): 111%
- viability, T/C (second compound 0.1 µM, first compound 0.0316 µM): 114%
- viability, T/C (second compound 0.1 µM, first compound 0.1 µM): 112%
- viability, T/C (second compound 0.1 µM, first compound 0.316 µM): 120%
- viability, T/C (second compound 0.1 µM, first compound 1 µM): 113%
- viability, T/C (second compound 0.1 µM, first compound 3.16 µM): 122%
- viability, T/C (second compound 0.1 µM, first compound 10 µM): 108%
- viability, T/C (second compound 0.316 µM, first compound 0.0316 µM): 113%
- viability, T/C (second compound 0.316 µM, first compound 0.1 µM): 115%
- viability, T/C (second compound 0.316 µM, first compound 0.316 µM): 101%
- viability, T/C (second compound 0.316 µM, first compound 1 µM): 117%
- viability, T/C (second compound 0.316 µM, first compound 3.16 µM): 112%
- viability, T/C (second compound 0.316 µM, first compound 10 µM): 77.1%
- viability, T/C (second compound 1 µM, first compound 0.0316 µM): 105%
- viability, T/C (second compound 1 µM, first compound 0.1 µM): 104%
- viability, T/C (second compound 1 µM, first compound 0.316 µM): 98.2%
- viability, T/C (second compound 1 µM, first compound 1 µM): 111%
- viability, T/C (second compound 1 µM, first compound 3.16 µM): 108%
- viability, T/C (second compound 1 µM, first compound 10 µM): 79.2%
- viability, T/C (second compound 3.16 µM, first compound 0.0316 µM): 103%
- viability, T/C (second compound 3.16 µM, first compound 0.1 µM): 84%
- viability, T/C (second compound 3.16 µM, first compound 0.316 µM): 84%
- viability, T/C (second compound 3.16 µM, first compound 1 µM): 105%
- viability, T/C (second compound 3.16 µM, first compound 3.16 µM): 96.5%
- viability, T/C (second compound 3.16 µM, first compound 10 µM): 70%
- viability, T/C (second compound 10 µM, first compound 0.0316 µM): 74%
- viability, T/C (second compound 10 µM, first compound 0.1 µM): 80.4%
- viability, T/C (second compound 10 µM, first compound 0.316 µM): 72.8%
- viability, T/C (second compound 10 µM, first compound 1 µM): 96%
- viability, T/C (second compound 10 µM, first compound 3.16 µM): 63.9%
- viability, T/C (second compound 10 µM, first compound 10 µM): 74.2%

From PubChem BioAssay AID2060907 (Molecular Pharmacology Branch, DTP, NCI, 2025)
